pIC50: −log10 of the molar value. Converted amounts (≈) assume the structure as drawn. “And” between values parts separate entries of the source, which are not always exact repeats. Equal values may be shown once. Where a name gives a salt, the structure may show the parent alone. Read-outs that look alike come from different tables or passages of the source.
Experiments:
Staphylococcus aureus [1] = experiment: In vitro MIC against bovine mastitis strains; assay type: cell-based; conditions: "OXFORD", Internal Ref. No. 6571, read-out: Approximate MIC
St. pyogenes = experiment: In vitro antibacterial activity (MIC); assay type: cell-based; conditions: for MIC: Streptococcus pyogenes
E. coli CN 314 = experiment: In vitro antibacterial activity (MIC); assay type: cell-based; conditions: Escherichia coli, CN314
Strep.Faecalis CN 478 = experiment: In vitro antibacterial activity (MIC); assay type: cell-based; conditions: for MIC: Enterococcus faecalis, CN478
Staphylococcus aureus [2] = experiment: In vitro MIC against bovine mastitis strains; assay type: cell-based; conditions: read-out: Approximate MIC
From the text: (§1) All organisms were isolated from the bovine udder.

Streptococcus uberis = experiment: In vitro MIC against bovine mastitis strains; assay type: cell-based; conditions: Internal Ref. No. 359, isolated from the bovine udder, read-out: Approximate MIC
From the text: as §1

[3] = system: Streptococcus dysgalactiae; experiment: In vitro MIC against bovine mastitis strains; assay type: cell-based; conditions: read-out: Approximate MIC
From the text: as §1

Streptococcus agalactiae = experiment: In vitro MIC against bovine mastitis strains; assay type: cell-based; conditions: read-out: Approximate MIC
From the text: as §1

Staph.aureus CN 491 = experiment: In vitro antibacterial activity (MIC); assay type: cell-based; conditions: for MIC: Staphylococcus aureus
[4] = LD50 intraperitoneal in male rats; conditions: rat, in vivo, ip
Description: The LD50's ( expressed in rng/kg intraperitoneal) of two compounds of the present invention were determined in male rats.

N. gonorrhea [5] = experiment: In vitro antibacterial activity versus TMP, Difco test; assay type: cell-based; conditions: activity relative to trimethoprim
Dihydrofolate reductase [6] = biological target: Dihydrofolate reductase (Neisseria gonorrhoeae, UniProt P04174); experiment: biochemical; conditions: N. gonorrhea enzyme; read-out: Dihydrofolate reductase inhibition, I50 x 10^8
N. gonorrhea [7] = experiment: In vitro antibacterial activity versus TMP, Wellcome test; assay type: cell-based; conditions: activity relative to trimethoprim
Dihydrofolate reductase [8] = biological target: Dihydrofolate reductase (Plasmodium berghei, UniProt Q27713); experiment: biochemical; conditions: P. berghei enzyme; read-out: Dihydrofolate reductase inhibition, I50 x 10^8
Dihydrofolate reductase [9] = biological target: Dihydrofolate reductase (Escherichia coli, UniProt P0ABQ4); experiment: Dihydrofolate reductase inhibition; assay type: biochemical, E. coli
Dihydrofolate reductase [10] = biological target: T1, Dihydrofolate reductase (Rattus norvegicus, UniProt Q920D2); experiment: Dihydrofolate reductase inhibition; assay type: biochemical, Rat liver
T1 construct: Rat liver; from tissue; host or cells: rat liver
T1 sequence (Q920D2 1-187): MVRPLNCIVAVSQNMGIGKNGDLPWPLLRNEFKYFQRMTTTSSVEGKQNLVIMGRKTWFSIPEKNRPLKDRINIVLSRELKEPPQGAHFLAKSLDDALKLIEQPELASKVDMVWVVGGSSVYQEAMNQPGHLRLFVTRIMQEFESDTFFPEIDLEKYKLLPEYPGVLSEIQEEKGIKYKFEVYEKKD

[11] = Internal Ref. No. 316, isolated from the bovine udder
[12] = Internal Ref. No. 317, isolated from the bovine udder
[13] = Internal Ref. No. 348, isolated from the bovine udder
[14] = Internal Ref. No. 349, isolated from the bovine udder
[15] = Internal Ref. No. 352, isolated from the bovine udder
[16] = Internal Ref. No. 353, isolated from the bovine udder
[17] = Internal Ref. No. 366, isolated from the bovine udder
[18] = Internal Ref. No. 367, isolated from the bovine udder
[19] = Internal Ref. No. 321, isolated from the bovine udder
[20] = Internal Ref. No. 371, isolated from the bovine udder
[21] = read-out: MIC St. pyogenes CN 10
[22] = read-out: MIC St. pyogenes S3640
[23] = Rat liver enzyme, read-out: Dihydrofolate reductase inhibition, I50 x 10^8

Molecule | MIC (Staphylococcus aureus [1]) [µM] | MIC (E. coli CN 314) [µg/mL] | MIC (Strep.Faecalis CN 478) [µg/mL] | MIC (Staphylococcus aureus [2]; [11]) [µM] | MIC (Staphylococcus aureus [2]; [12]) [µM] | MIC (Staphylococcus aureus [2]; [13]) [µM] | MIC (Staphylococcus aureus [2]; [14]) [µM] | MIC (Staphylococcus aureus [2]; [15]) [µM] | MIC (Staphylococcus aureus [2]; [16]) [µM] | MIC (Streptococcus uberis) [µM] | MIC [3, 17] [µM] | MIC [3, 18] [µM] | MIC (Streptococcus agalactiae; [19]) [µM] | MIC (Streptococcus agalactiae; [20]) [µM] | MIC (St. pyogenes; [21]) [µg/mL] | MIC (St. pyogenes; [22]) [µg/mL] | pIC50 (Dihydrofolate reductase [6]) | MIC (Staph.aureus CN 491; CN491) [µg/mL] | pIC50 (Dihydrofolate reductase [9]) | pIC50 (Dihydrofolate reductase [10]) | also measured
COc1cc(Cc2cnc(N)nc2N)cc(OC)c1OC [Trimethoprim, reference compound] | 1 (≈ 0.29 µg/mL) | 0.1 (≈ 0.344 µM) | 0.1 (≈ 0.344 µM) | 1 (≈ 0.29 µg/mL) | 0.33 (≈ 0.0958 µg/mL) | 1 (≈ 0.29 µg/mL) | 1 (≈ 0.29 µg/mL) | 3.3 (≈ 0.958 µg/mL) | 1 (≈ 0.29 µg/mL) | 10 (≈ 2.9 µg/mL) | 3.3 (≈ 0.958 µg/mL) | 1 (≈ 0.29 µg/mL) | 1 (≈ 0.29 µg/mL) | 3.3 (≈ 0.958 µg/mL) |  |  |  |  |  |  | MIC (St. pyogenes; strain CN 10, cell prints compound/trimethoprim, read-out: MIC St. pyogenes CN 10): 0.5 µg/mL (≈ 1.72 µM); MIC St. pyogenes CN 10 (St. pyogenes; strain CN 10, cell prints compound/trimethoprim): 0.3/0.3 ug/ml and 0.3 ug/ml; MIC Strep.Faecalis CN 478 (Strep.Faecalis CN 478; strain CN 478, cell prints compound/trimethoprim): 0.1 µg/mL (≈ 0.344 µM); MIC (Staph.aureus CN 491; CN491, strain CN 491, cell prints compound/trimethoprim): 0.5 µg/mL (≈ 1.72 µM); MIC Staph.aureus CN 491 (Staph.aureus CN 491; strain CN 491, cell prints compound/trimethoprim): 0.3 ug/ml and 0.3/0.3 ug/ml and 0.5/0.5 ug/ml
COc1cccc(CCCOc2cc(Cc3cnc(N)nc3N)cc(OC)c2OC)c1 [compound 2, 2,4-Diamino-5-(3,4-dimethoxy-5-(3-(m-methoxyphenyl)propoxy)benzyl)pyrimidine] | 0.025 (≈ 0.0106 µg/mL) | 10 (≈ 23.6 µM) | 0.3 (≈ 0.707 µM) | 0.025 (≈ 0.0106 µg/mL) | 0.025 (≈ 0.0106 µg/mL) | 0.025 (≈ 0.0106 µg/mL) | 0.025 (≈ 0.0106 µg/mL) | 0.075 (≈ 0.0318 µg/mL) | 0.025 (≈ 0.0106 µg/mL) | 2.5 (≈ 1.06 µg/mL) | 0.75 (≈ 0.318 µg/mL) | 0.25 (≈ 0.106 µg/mL) | 0.25 (≈ 0.106 µg/mL) | 0.75 (≈ 0.318 µg/mL) | 1 (≈ 2.36 µM) | 1 (≈ 2.36 µM) | 7.74 | 0.3 (≈ 0.707 µM) | 7.24 | 4.08 | LD50 [4]: > 100 mg/kg; Act., vs TMP N. gonorrhea Difco test (N. gonorrhea [5]): 9.63; Act., vs TMP N. gonorrhea Wellcome test (N. gonorrhea [7]): 3.20; pIC50 (Dihydrofolate reductase [8]): 7.24
CCc1cc(Cc2cnc(N)nc2N)cc(CC)c1OCCOCc1ccccc1 [Example 6, 2,4-Diamino-5-(3,5-diethyl-4-(2-benzyloxyethoxy)benzyl)pyrimidine] |  | 10 (≈ 24.6 µM) | 0.3 (≈ 0.738 µM) |  |  |  |  |  |  |  |  |  |  |  | 3 (≈ 7.38 µM) | 1 (≈ 2.46 µM) | 7.32 | 3 (≈ 7.38 µM) |  |  | Act., vs TMP N. gonorrhea Wellcome test (N. gonorrhea [7]): 0.35; pIC50 (Dihydrofolate reductase [8]): 7.47; pIC50 (Dihydrofolate reductase [10]; [23]): 4.59
2,4-dimethoxy-5-(dime-thoxy-5-(3-p-aminophenyl-propoxy)benzyl)pyrimidine |  |  |  |  |  |  |  |  |  |  |  |  |  |  |  |  | 7.54 |  |  |  | pIC50 (Dihydrofolate reductase [9]; E. coli enzyme, read-out: Dihydrofolate reductase inhibition, I50 x 10^8): 8.14; pIC50 (Dihydrofolate reductase [10]; [23]): 4.09
COc1cc(Cc2cnc(N)nc2N)cc(OCCCCOc2ccccc2)c1OC [Example 10, 2,4-Diamino-5-(3,4-dimethoxy-5-(4-phenoxybutoxy)benzyl)pyrimidine hydrochloride] |  |  |  |  |  |  |  |  |  |  |  |  |  |  |  |  | 7.72 |  | 8.40 | 4.13 | 
COc1cc(Cc2cnc(N)nc2N)cc(OCCSCc2ccccc2)c1OC [Example 15, 2,4-Diamino-5-(3,4-dimethoxy-5-(2-(benzylthio)ethoxy)benzyl)pyrimidine] |  | 0.5 (≈ 1.17 µM) | 0.1 (≈ 0.234 µM) |  |  |  |  |  |  |  |  |  |  |  | 0.5 (≈ 1.17 µM) | 0.5 (≈ 1.17 µM) | 7.74 | 0.05 (≈ 0.117 µM) | 8.70 | 4.33 | 

From patent publication EP0054756A2, “Antibacterial benzylpyrimidines” (THE WELLCOME FOUNDATION LIMITED, priority 1980, dated 1982)
